# Reference: paper PMC7150977, “Regional Intestinal Drug Permeability and Effects of Permeation Enhancers in Rat” (Pharmaceutics, 2020)
# Read-outs that look alike come from different tables or passages of the source.
# Experiments:
# [1] = First-pass extraction (Ffirstpass) in rat intestine and liver; type: in vivo; settings: based on literature data, iv plasma CL and liver blood flow 47 mL/min/kg
# [2] = tested on: jejunum and colon; test: Regional comparison (jejunum vs colon, pH 6.5 vs 7.4) of Peff in rat SPIP; type: in vivo; settings: plasma appearance
# Description: The ratio was compared using the paired student’s t-test with the Benjamini–Hochberg multiple t-test correction. Multiple comparisons between groups were performed using a two-way ANOVA with a post-hoc Holm–Sidak multiple comparison test. Log transformation of values was performed when the original measured data were heteroscedastic and not normally distributed; this was investigated using the Bartlett test. Differences were considered to be statistically significant for p-values < than 0.05.
# [3] = tested on: colon; settings: control solutions, mean ±SD, n = 38
# Description: A linear regression analysis of the plasma samples was made to obtain a corresponding plasma value for each perfusate sample. The blood-to-lumen CLCr-EDTA was calculated using Equation (1) [16]. (1) CLCr−EDTA=Cperfusate × Qin/Cplasma × tissue weight ×100 where Cperfusate and Cplasma is the activity in the perfusate and plasma (cpm/mL), and Qin is the flow rate (mL/min). CLCr-EDTA was determined during the last 45 min for the control solution and during the last 60 min for the test solutions, of which the first 15 min of each period were for equilibration.
# [4] = tested on: jejunum; test: Rat single-pass intestinal perfusion (SPIP), jejunal lumen-to-blood Peff from plasma appearance; type: in vivo; settings: 100 µM, mean ±SD, n = 6
# [5] = tested on: jejunum; design: method as in PMID 31201856; settings: rat jejunum SPIP, cited from earlier work
# [6] = tested on: jejunum and colon; settings: human study; cited from earlier work
# [7] = design: method as in PMID 9836611; settings: n-octanol-water; cited from earlier work
# [8] = tested on: colon; settings: male, Han Wistar, rat, in vivo, 60 min, 100 µM
# [9] = tested on: intestine; settings: pH 6.5, human SPIP model; cited from earlier work
# [10] = tested on: intestine; settings: pH 6.5, rat SPIP model; cited from earlier work
# [11] = design: method as in patent wo2012080471, 6; settings: dog, oral with permeation enhancer; ref patent wo2012080471, 6; cited from earlier work
# [12] = Jejunum pH 6.5, control solution
# [13] = Jejunum pH 7.4, control solution
molecule,measurement,setting,value
"CC(C)NCC(O)COc1ccc(CC(N)=O)cc1 (centres unmarked) [Atenolol, atenolol]",Ffirstpass (first-pass extraction compensation value),[1],1.0
same,difference in jejunal and colonic basal Peff,[2],no differences
"O=C([O-])CN(CCN(CC(=O)[O-])CC(=O)[O-])CC(=O)[O-].[51Cr+3] [Cr-EDTA, ^51chromium-labeled ethylenediaminetetraacetate]",colonic CLCr-EDTA (blood-to-lumen clearance),[3],0.038 ± 0.050 mL/min/100 g
"C[C@H](N[C@@H](CCc1ccccc1)C(=O)O)C(=O)N1CCC[C@H]1C(=O)O [Enalaprilat, enalaprilat]",Plasma Appearance Peff,[4]; [12],0.005 ± 0.004 ×10^–4 cm/s
same,Plasma Appearance Peff,[4]; [13],0.004 ± 0.001 ×10^–4 cm/s
same,difference in jejunal and colonic basal Peff,[2],no differences
same,permeability from luminal disappearance compared to plasma appearance (times higher),[5]; same rat,> 10 times
"CC(C(=O)O)c1cccc(C(=O)c2ccccc2)c1 (centres unmarked) [Ketoprofen, ketoprofen]",difference between permeability from luminal disappearance and plasma appearance,[6],no differences
same,difference between permeability from luminal disappearance and plasma appearance,[5],no differences
"COCCc1ccc(OCC(O)CNC(C)C)cc1 (centres unmarked) [Metoprolol, metoprolol]",difference between permeability from luminal disappearance and plasma appearance,[6],no differences
same,Plasma Appearance Peff,[4]; [12],0.28 ± 0.24 ×10^–4 cm/s
same,Plasma Appearance Peff,[4]; [13],0.17 ± 0.095 ×10^–4 cm/s
same,Ffirstpass (first-pass extraction compensation value),[1],0.22
same,Log P,[7],2.07
same,Plasma Appearance Peff,[8]; pH 6.5,0.41 ± 0.19 ×10^–4 cm/s
same,Plasma Appearance Peff,[8]; pH 7.4,0.38 ± 0.15 ×10^–4 cm/s
same,difference between permeability from luminal disappearance and plasma appearance,[5],no differences
"CCCCCCCCCC(=O)[O-].[Na+] [caprate, sodium caprate]",permeation enhancing effect,[9],no permeation enhancing effect
same,permeation enhancing effect,[10],no permeation enhancing effect
semaglutide,bioavailability,[11],0.29 % of the oral dose
